# Measured values as given in PubChem BioAssay (NCI).
#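 Step 1: Grow cells in 96-well plates. Step 2: Expose to compound for 48 hours at 5 concentrations. Step 3: Interpolate endpoints linearly; if unreached, use highest concentration. The concentration for 50% growth inhibition is given as GI50. TGI: concentration producing complete growth inhibition.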
# Key:
# Assay in all cases: DTP human tumour cell line panel, 48 h
# NCI-H23 lung = system: NCI-H23 lung
# NCI-H460 lung = system: NCI-H460 lung
# NCI-H522 lung = system: NCI-H522 lung
# NCI/ADR-RES ovarian = system: NCI/ADR-RES ovarian
# OVCAR-4 ovarian = system: OVCAR-4 ovarian
# OVCAR-5 ovarian = system: OVCAR-5 ovarian
# OVCAR-8 ovarian = system: OVCAR-8 ovarian
# PC-3 prostate = system: PC-3 prostate
# RPMI-8226 leukemia = system: RPMI-8226 leukemia
# RXF 393 renal = system: RXF 393 renal
# SF-268 CNS = system: SF-268 CNS
# SF-295 CNS = system: SF-295 CNS
# SF-539 CNS = system: SF-539 CNS
# SK-MEL-2 melanoma = system: SK-MEL-2 melanoma
# SK-MEL-28 melanoma = system: SK-MEL-28 melanoma
# SK-MEL-5 melanoma = system: SK-MEL-5 melanoma
# SK-OV-3 ovarian = system: SK-OV-3 ovarian
# SN12C renal = system: SN12C renal
# SNB-19 CNS = system: SNB-19 CNS
# SNB-75 CNS = system: SNB-75 CNS
# SR leukemia = system: SR leukemia
# SW-620 colon = system: SW-620 colon
# T-47D breast = system: T-47D breast
# TK-10 renal = system: TK-10 renal
# U251 CNS = system: U251 CNS
# UACC-257 melanoma = system: UACC-257 melanoma
# UACC-62 melanoma = system: UACC-62 melanoma
# UO-31 renal = system: UO-31 renal
smiles,measurement,setting,value
CC(=O)O[C@H]([C@H](OC(C)=O)[C@H](C)OC(C)=O)[C@@H](/C=C/[C@H]1CC=CC(=O)O1)OC(C)=O,GI50,NCI-H23 lung,66.6 µM
same,TGI,NCI-H23 lung,> 100 µM
same,GI50,NCI-H460 lung,59.4 µM
same,TGI,NCI-H460 lung,> 100 µM
same,GI50,NCI-H522 lung,15.6 µM
same,TGI,NCI-H522 lung,36.2 µM
same,GI50,NCI/ADR-RES ovarian,> 100 µM
same,TGI,NCI/ADR-RES ovarian,> 100 µM
same,GI50,OVCAR-4 ovarian,34.7 µM
same,TGI,OVCAR-4 ovarian,> 100 µM
same,GI50,OVCAR-5 ovarian,> 100 µM
same,TGI,OVCAR-5 ovarian,> 100 µM
same,GI50,OVCAR-8 ovarian,51.2 µM
same,TGI,OVCAR-8 ovarian,> 100 µM
same,GI50,PC-3 prostate,17.6 µM
same,TGI,PC-3 prostate,> 100 µM
same,GI50,RPMI-8226 leukemia,26.3 µM
same,TGI,RPMI-8226 leukemia,89.8 µM
same,GI50,RXF 393 renal,> 100 µM
same,TGI,RXF 393 renal,> 100 µM
same,GI50,SF-268 CNS,41.6 µM
same,TGI,SF-268 CNS,> 100 µM
same,GI50,SF-295 CNS,20.6 µM
same,TGI,SF-295 CNS,59.8 µM
same,GI50,SF-539 CNS,37.2 µM
same,TGI,SF-539 CNS,> 100 µM
same,GI50,SK-MEL-2 melanoma,36.4 µM
same,TGI,SK-MEL-2 melanoma,> 100 µM
same,GI50,SK-MEL-28 melanoma,39.2 µM
same,TGI,SK-MEL-28 melanoma,> 100 µM
same,GI50,SK-MEL-5 melanoma,33.2 µM
same,TGI,SK-MEL-5 melanoma,> 100 µM
same,GI50,SK-OV-3 ovarian,> 100 µM
same,TGI,SK-OV-3 ovarian,> 100 µM
same,GI50,SN12C renal,83.3 µM
same,TGI,SN12C renal,> 100 µM
same,GI50,SNB-19 CNS,80.5 µM
same,TGI,SNB-19 CNS,> 100 µM
same,GI50,SNB-75 CNS,22.2 µM
same,TGI,SNB-75 CNS,61.7 µM
same,GI50,SR leukemia,73.7 µM
same,TGI,SR leukemia,> 100 µM
same,GI50,SW-620 colon,37.6 µM
same,TGI,SW-620 colon,> 100 µM
same,GI50,T-47D breast,38.3 µM
same,TGI,T-47D breast,> 100 µM
same,GI50,TK-10 renal,> 100 µM
same,TGI,TK-10 renal,> 100 µM
same,GI50,U251 CNS,> 100 µM
same,TGI,U251 CNS,> 100 µM
same,GI50,UACC-257 melanoma,> 100 µM
same,TGI,UACC-257 melanoma,> 100 µM
same,GI50,UACC-62 melanoma,> 100 µM
same,TGI,UACC-62 melanoma,> 100 µM
same,GI50,UO-31 renal,> 100 µM
same,TGI,UO-31 renal,> 100 µM
